Results reported in the supplement of paper PMC10307832.

What was measured:
Assay in all cases: relative viability (nuclei count vs DMSO), 5 days (fraction); higher = more cells survive
[1] = compound: CC1=CN=C(N=C1C2=CNC(=C2)C(=O)N[C@H](CO)C3=CC(=CC=C3)Cl)NC4=C(C=C(C=C4)F)Cl [VX-11e] + Nc1ncn([C@H]2C[C@H](O)[C@@H](CO)O2)c(=O)n1 [Decitabine] (partner 2 µM)
Procedure, shortened: (§1)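 Nuclei were stained with Hoechst during a one-step fixation (final 0.05% Triton X-100, 1% formaldehyde, 1 ug/ml Hoechst) carried out 5 days after dosing, then counted on 4× images. The cells, lung cancer lines in 1536-well plates, had been dosed by pin tool the day after seeding with one drug alone or a fixed anchor-drug dose plus five library-drug doses (not always all listed) in √10 steps. Relative viability is the nuclei count in treated wells divided by that in vehicle wells, and each value is the median of duplicate plates.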

[2] = compound: CC1=CN=C(N=C1C2=CNC(=C2)C(=O)N[C@H](CO)C3=CC(=CC=C3)Cl)NC4=C(C=C(C=C4)F)Cl [VX-11e] + CC1(C)CCC(c2ccc(Cl)cc2)=C(CN2CCN(c3ccc(C(=O)NS(=O)(=O)c4ccc(N[C@H](CCN5CCOCC5)CSc5ccccc5)c(S(=O)(=O)C(F)(F)F)c4)cc3)CC2)C1 [Navitoclax] (partner 0.5 µM)
Procedure, shortened: as §1

[3] = compound: CC1=CN=C(N=C1C2=CNC(=C2)C(=O)N[C@H](CO)C3=CC(=CC=C3)Cl)NC4=C(C=C(C=C4)F)Cl [VX-11e] + N=C(N)NC(=N)NCCc1ccccc1 [Phenformin] (partner 250 µM)
Procedure, shortened: as §1

[4] = compound: CC1=CN=C(N=C1C2=CNC(=C2)C(=O)N[C@H](CO)C3=CC(=CC=C3)Cl)NC4=C(C=C(C=C4)F)Cl [VX-11e] + C[C@@H](Oc1cc(-c2cnn(C3CCNCC3)c2)cnc1N)c1c(Cl)ccc(F)c1Cl [Crizotinib] (partner 1 µM)
Procedure, shortened: as §1

Cell Line	relative viability ([1]; first compound 0.04 µM)	relative viability ([1]; first compound 0.1265 µM)	relative viability ([1]; first compound 0.4 µM)	relative viability ([1]; first compound 1.265 µM)	relative viability ([1]; first compound 4 µM)	relative viability ([2]; first compound 0.04 µM)	relative viability ([2]; first compound 0.1265 µM)	relative viability ([2]; first compound 0.4 µM)	relative viability ([2]; first compound 1.265 µM)	relative viability ([2]; first compound 4 µM)	relative viability ([3]; first compound 0.04 µM)	relative viability ([3]; first compound 0.1265 µM)	relative viability ([3]; first compound 0.4 µM)	relative viability ([3]; first compound 1.265 µM)	relative viability ([3]; first compound 4 µM)	relative viability ([4]; first compound 0.04 µM)	relative viability ([4]; first compound 0.1265 µM)	relative viability ([4]; first compound 0.4 µM)	relative viability ([4]; first compound 1.265 µM)	relative viability ([4]; first compound 4 µM)
201T	0.868	0.84	0.831	0.831	0.758	1.23	1.16	1.2	1.17	1.08	0.445	0.476	0.38	0.453	0.418	1.02	0.961	1.02	0.97	0.948
A549		0.264	0.0929	0.249	0.202	1.22	1.11	0.984	0.257	0.111	0.151	0.155	0.0307	0.279	0.0557	0.826	0.786	0.601	0.207	0.0915
A-427	0.559	0.518	0.569	0.645	0.443	0.999	0.88	0.796	0.585	0.268	0.343	0.213	0.263	0.264	0.158	0.92	0.721	0.55	0.688	0.311
ABC-1	1.11		0.992	1.06	0.977						0.205	0.277	0.224	0.243	0.281	1.24	1.07	1.06	0.892	1.09
BEN	0.505	0.645	0.712	0.573	0.654	0.0581	0.0703	0.0708	0.061	0.0537		0.267	0.256	0.299	0.253	0.953	0.723	0.941	0.575	0.828
CAL-12T						1.14	1.3	1.09	1.2	0.422	0.677	0.507	0.504	0.41	0.194	0.697	0.632	0.633	0.543	0.394
COR-L23	0.374	0.417	0.396	0.426	0.276	1.25	1.13	0.924	0.681	0.305	0.52	0.409	0.471	0.428	0.276	0.708	0.627	0.646	0.497	0.211
COR-L 105	0.685	0.701	0.712	0.705	0.333	0.591	0.759	0.55	0.692	0.284	0.489	0.487	0.391	0.366	0.227	0.779	0.705	0.547	0.369	0.292
Calu-6						0.994	0.786	0.737	0.219	0.109						0.829	0.839	0.861	0.396	0.145
ChaGo-K-1	0.534	0.495	0.511	0.51	0.5	0.616		1.07	0.781	0.787	0.435	0.478	0.382	0.472	0.407	1.19		1.23	1.01	1.12
EKVX	0.331	0.397	0.298	0.394	0.232	0.847	0.935	0.926	0.831	0.601	0.211	0.237	0.13	0.216	0.197	1.07	0.944	0.879	0.764	0.617
EMC-BAC-2	1.02	0.958	0.653	1	0.588	1.22	1.11	0.994	0.927	0.833	0.518	0.481	0.633	0.545	0.51	0.808	0.708	0.739	0.618	0.671
EPLC-272H	0.331	0.337		0.29	0.178	1.09	1.02	1.01	0.82	0.668	0.322	0.22		0.32	0.225	0.711	0.877	0.85	0.676	0.627
H3255	0.667	0.603	0.482	0.48	0.332	0.526	0.451	0.657	0.614	0.496	0.359	0.411	0.378	0.362	0.319	0.898	0.716	0.608	0.877	0.887
HARA	0.491	0.417	0.38	0.365	0.467	1.16	1.1	1.13	1.13	0.968	0.453	0.431	0.414	0.399	0.314	1.05	0.792	1.04	0.833	0.813
HCC-15	0.641	0.603	0.225	0.338	0.274	0.711	0.649	0.53	0.317	0.196	0.57	0.464		0.211	0.162	0.904	0.747	0.64	0.449	0.264
HCC-44	0.995	0.896	0.939	0.904	1.06	0.92	0.883	1.22	1	0.732	0.211	0.172	0.115	0.119	0.139	0.879	0.809	0.833	0.753	0.453
HCC-78	0.721	0.698	0.676	0.775	0.786	0.878	0.69	0.769	0.455	0.762		0.75	0.857	0.672	0.738	0.351	0.307	0.353	0.285	0.285
HCC-366	0.402	0.348		0.322	0.217	1.22	1.02		0.993	0.708	0.61	0.549		0.57	0.463	0.605	0.476		0.561	0.184
HCC-827	0.266	0.32	0.342	0.431	0.324	1.07	1.02	0.992	1.24	0.919	0.409	0.413	0.369	0.479	0.375	1.01	0.953	0.888	0.958	0.839

Cell Line	relative viability ([1]; first compound 0.04 µM)	relative viability ([1]; first compound 0.1265 µM)	relative viability ([1]; first compound 0.4 µM)	relative viability ([1]; first compound 1.265 µM)	relative viability ([1]; first compound 4 µM)	relative viability ([2]; first compound 0.04 µM)	relative viability ([2]; first compound 0.1265 µM)	relative viability ([2]; first compound 0.4 µM)	relative viability ([2]; first compound 1.265 µM)	relative viability ([2]; first compound 4 µM)	relative viability ([3]; first compound 0.04 µM)	relative viability ([3]; first compound 0.1265 µM)	relative viability ([3]; first compound 0.4 µM)	relative viability ([3]; first compound 1.265 µM)	relative viability ([3]; first compound 4 µM)	relative viability ([4]; first compound 0.04 µM)	relative viability ([4]; first compound 0.1265 µM)	relative viability ([4]; first compound 0.4 µM)	relative viability ([4]; first compound 1.265 µM)	relative viability ([4]; first compound 4 µM)
HOP-62	0.223	0.239	0.213	0.248	0.312	0.992	0.891	1.02	0.46	0.582	0.754	0.647	0.524	0.421	0.377	0.887	0.863	0.978	0.76	0.428
IA-LM						0.899	0.891	0.844	0.415	0.0436						0.931	0.961	0.697	0.271	0.116
LC-2-ad	0.798	0.776	0.703	0.872	0.654	0.463	0.375	0.362	0.372	0.248	0.525	0.461	0.395	0.372	0.467	0.459	0.424	0.529	0.395	0.401
LCLC-97TM1	0.259	0.209	0.221		0.171	0.492	0.463		0.408	0.157	0.525	0.393	0.347	0.516	0.382	0.396	0.383		0.324	0.182
LCLC-103H	0.726	0.701	0.726	0.742	0.608						0.309	0.333	0.312	0.302	0.295	1.01	1.09	0.968	0.882	0.852
LK-2	0.179	0.33	0.177	0.208	0.207	0.893	0.732	0.781	0.738	0.86	0.241	0.601	0.311	0.189	0.173		0.275	0.394		0.243
LOU-NH91	0.829	0.777		0.85	0.768	0.751	0.692		0.593	0.581	0.65	0.721	0.312	0.468	0.569	0.706	0.71		0.773	0.639
NCI-H358	0.232	0.203	0.124	0.222	0.142						0.276	0.288	0.07	0.263	0.142	0.692	0.509		0.523	0.225
NCI-H522	0.641	0.648	0.648	0.599	0.573						0.609	0.621	0.558	0.48	0.656					
NCI-H650	0.386	0.312	0.325	0.403	0.371						0.496	0.441	0.491	0.442	0.446		0.538	0.711		0.478
NCI-H661	0.514	0.491	0.502	0.52	0.432						0.242	0.324	0.275	0.293	0.27		0.974	1	1.16	0.934
NCI-H1299						1.02	1.01	1.02	0.976	0.692						0.994	0.879	0.956	0.84	0.47
NCI-H1395	0.734	0.721		0.695	0.62	1.16	0.999	0.832	1.06	0.659	0.42	0.405	0.453	0.461	0.398					
NCI-H1563											0.647	0.607	0.549	0.713	0.806	0.861	0.799	0.969	0.91	0.642
NCI-H1648		0.584	0.491	0.654	0.42															
NCI-H1703						1.12	1.21	1.24	1.29	0.744						0.985	0.727		0.589	0.582
NCI-H1793		0.406		0.516	0.351		0.526		0.382	0.152	0.372	0.314		0.34	0.245					
NCI-H2228						0.902	0.73	1.08	0.477	0.162	0.352	0.376		0.151	0.135	0.533	0.524	0.463	0.263	0.303
NCI-H2342		0.797	0.752	0.787	0.6						0.438	0.614	0.534	0.782	0.583					
SW 900	0.443	0.491		0.529	0.455						0.504	0.456	0.216	0.213	0.318					
